Data published in PMC6535779, “A Specific, Glycomimetic Langerin Ligand for Human Langerhans Cell Targeting” (ACS Central Science, 2019).

What was measured:
[1] = target: T1, Langerin extracellular domain (ECD) (Homo sapiens, UniProt Q9UJ71); experiment: 19F R2-filtered NMR reporter displacement assay with Langerin; type: binding; conditions: for Ki: 19F R2-filtered NMR, 0.1 mM reporter ligand 24, pH 7.8, 25 °C; for Relative potency, Langerin: calculated utilizing the KI value determined for GlcNAc
T1 construct: the trimeric Langerin extracellular domain (ECD) was expressed insolubly in E; made in house
T1 sequence (Q9UJ71 65-328 limits assumed): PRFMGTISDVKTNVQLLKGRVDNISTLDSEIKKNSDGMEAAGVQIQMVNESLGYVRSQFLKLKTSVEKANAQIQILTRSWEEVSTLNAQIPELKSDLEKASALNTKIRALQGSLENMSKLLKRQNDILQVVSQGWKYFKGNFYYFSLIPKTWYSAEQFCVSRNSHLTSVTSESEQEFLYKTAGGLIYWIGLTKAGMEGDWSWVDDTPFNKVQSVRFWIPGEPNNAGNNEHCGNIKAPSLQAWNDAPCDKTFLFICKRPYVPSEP
Description: Receptor Expression and Purification
General remarks. Codon-optimized genes for the expression of Langerin and DC-SIGN in E. coli were purchased from GenScript and Life Technologies, respectively. All growth media or chemicals used for receptor expression and purification were purchased from Carl Roth if not stated otherwise.
Langerin extracellular domain. Expression and purification were conducted as previously published14. Briefly, the trimeric Langerin extracellular domain (ECD) was expressed insolubly in E. coli BL21* (DE3) (Invitrogen). Following enzymatic cell lysis, inclusion bodies were harvested and subsequently solubilized. The sample was centrifuged and the Langerin ECD was refolded overnight via rapid dilution. Next, the sample was dialyzed overnight, centrifuged and purified via mannan-agarose affinity chromatography (Sigma Aldrich). For 19F R2-filtered NMR and lipid-enzyme-linked lectin assay (Lipid-ELLA) experiments, the buffer was exchanged to 25 mM Tris with 150 mM NaCl and 5 mM CaCl2 at pH 7.8 using 7 kDa size-exclusion desalting columns (Thermo Scientific). For […]
D2O, 150 mM NaCl and 5 mM CaCl2 at pH 7. The concentration of Langerin ECD was determined via UV spectroscopy (A280, 0.1% = 2.45). Purity and monodispersity of Langerin ECD samples were analyzed via SDS PAGE and DLS. […]
General remarks. 19F R2-filtered NMR experiments were conducted on a PremiumCompact 600 MHz spectrometer (Agilent). Spectra were processed in MestReNova and data analysis was performed with OriginPro 13, 15. Experiments with the Langerin ECD were performed at a receptor concentration of 50 μM in 25 mM Tris with 10% D2O, 150 mM NaCl and 5 mM CaCl2 at pH 7.8 and 25° C. […]
10% D2O, 150 mM NaCl and 5 mM CaCl2 at pH 7.0 and 25°C. TFA served as an internal reference at a concentration of 50 μM. Apparent relaxation rates R2,obs for the reporter ligand were determined using the CPMG pulse sequence as previously published3-5. […]
KI determination. KI values were determined as previously published for Langerin3. Briefly, titration experiments were conducted at a concentration of 0.1 mM of reporter ligand 24 at five competitor concentrations [I]T. Samples were prepared via serial dilution. For the acids GlcNS, GlcNAc-6-OS and GlcNS-6-OS the pH values were monitored and adjusted to 7.8 if necessary.
General remarks. 15N HSQC NMR experiments were conducted on an Ascend 700 MHz spectrometer (Bruker)16. Spectra were processed in NMRPipe17. Data analysis was performed using CCPN Analysis, MatLab and OriginPro15, 18-19. Experiments with the Langerin CRD were performed at a receptor concentration of 100 μM in 25 mM HEPES with 10% D 2O, 150 mM NaCl and 5 mM CaCl2 at pH 7.8 and 25° C. DSS-d6 served as an internal reference at a concentration of 100 μM. Spectra were referenced via the internal spectrometer reference. Spectra were acquired with 128 increments and 32 scans per increments for 150 μl samples in 3 mm sample tubes. The relaxation delay d1 was set to 1.4 s and the acquisition time tacq was set to 100 ms. The W5 Watergate pulse sequence was used for solvent suppression20. The used resonance assignment for the Langerin CRD has been published […]
KD determination. KD values were determined in titration experiments at six ligand concentrations [L]T. Samples were prepared via serial dilution. Chemical shift perturbations CSPs for Langerin CRD resonances in the fast or fast-to-intermediate exchange regime observed upon titration with ligand were calculated via Equation 121.

Langerin^– THP-1 cells = experiment: Colorimetric cytotoxicity assay, Langerin- THP-1 cells; type: cell-based, human; conditions: doxorubicin encapsulated in liposomes or free, 48 h
Description: (§1) the PEG-DSPE was substituted with glycolipids 22 or 23 at varying ratios. PEG-DSPE (3.0 kDa, NOF Europe), 22 or 23 were dissolved in DMSO, added to a round bottom flask and lyophilized. Next, DSPC (NOF Europe) and cholesterol (Sigma Aldrich) were dissolved in chloroform, added to the test tube and the solvent was removed in vacuo. The residue was dissolved in PBS and the mixture was vortexed and sonicated repeatedly until a homogeneous suspension was obtained. Unilamellar liposomes were prepared using a pore extruder (Avanti Polar Lipids) with polycarbonate membranes of 800, 400, 200 and finally 100 nm pore size (Avanti Polar Lipids). […]
(§2) The Lipid-ELLA was conducted as previously published35. […] Binding of the Langerin ECD was detected via absorbance A450 measurements at 450 nm using a SpectraMax spectrometer (Molecular Devices) in three independent titrations.
(§3) CO2. […] After centrifugation at 400 g for 5 min the supernatant was analyzed in the TNF-α ELISA. […]
(§4) To assess the cytotoxicity of doxorubicin-containing liposomes with THP-1 cells, 50,000 cells per well were added to 96 well microtiter plates (Corning) and incubated in presence of liposomes at a given total lipid concentration [Lipid]T in a final volume of 100 μl for 48 h at 37°C and 5% CO2. Cell viability was analyzed using CellTiter 96 (Promega) by measuring formazan absorbance at 490 nm. […]

Langerin^+ THP-1 cells = experiment: Colorimetric cytotoxicity assay, Langerin+ THP-1 cells; type: cell-based, human; conditions: doxorubicin encapsulated in liposomes or free, 48 h
Description: as §1, §2, §3, §4

Compound | Ki [1] [µM] | Relative potency, Langerin [1] | affinity increase over Man-based reference molecule 21 ([1]; from KI values, Langerin, b47 words it as over natural glycans) [fold] | killing of Langerin^– THP-1 cells (Langerin^– THP-1 cells) | killing of Langerin^+ THP-1 cells (Langerin^+ THP-1 cells)
O=S(=O)(O)N[C@H]1C(O)O[C@H](CO)[C@@H](O)[C@@H]1O (stereo partly shown) [GlcNS, glucosamine-2-sulfate] | 1400 ± 200 | 2.9 |  |  | 
Cc1ccc(S(=O)(=O)N[C@H]2[C@H](OCCN)O[C@H](CO)[C@@H](O)[C@@H]2O)cc1 [compound 15] |  |  | 42 |  | 
OC[C@H]1OC(O)[C@H](O)[C@@H](O)[C@@H]1O (stereo partly shown) [Glc] | 21000 ± 4000 | 0.20 |  |  | 
O=S(=O)(O)N[C@H]1C(O)O[C@H](COS(=O)(=O)O)[C@@H](O)[C@@H]1O (stereo partly shown) [GlcNS-6-OS, glucosamine-2-sulfate-6-sulfate] | 280 ± 60 | 14 |  |  | 
COc1cccc2c1C(=O)c1c(O)c3c(c(O)c1C2=O)C[C@@](O)(C(=O)CO)C[C@@H]3O[C@H]1C[C@H](N)[C@H](O)[C@H](C)O1 [free doxorubicin, doxorubicin] |  |  |  | killed both Langerin^+ and Langerin^– cells | killed both Langerin^+ and Langerin^– cells
CC(=O)N[C@@H]1[C@@H](O)[C@H](O)[C@@H](CO)O[C@H]1O [GlcNAc, N-acetyl glucosamine] | 4100 ± 700 | 1.0 |  |  | 
CC(=O)N[C@H]1C(O)O[C@H](COS(=O)(=O)O)[C@@H](O)[C@@H]1O (stereo partly shown) [GlcNAc-6-OS, N-acetyl glucosamine-6-sulfate] | 600 ± 100 | 6.8 |  |  | 
